According to patent US8299262B2, “Pyridylmethyl-sulfonamide compounds” (BASF SE, priority 2007, dated 2012):
Like-named read-outs stand apart in the source and are kept apart here.

What was measured:
Phytophthora infestans = format: cell-based; settings: single compound
Pyricularia oryzae [1] = format: cell-based; settings: single compound
Septoria tritici = experiment: Synergistic mixtures, microtiter test, leaf blotch pathogen Septoria tritici (Use Example 26); format: cell-based; settings: single compound, 4 ppm
Fusarium culmorum = experiment: Synergistic mixtures, microtiter test, Fusarium culmorum (Use Example 27); format: cell-based; settings: single compound
Colletotrichum truncatum = experiment: Synergistic mixtures, microtiter test, Colletotrichum truncatum (Use Example 28); format: cell-based; settings: single compound
Pyrenophora teres = experiment: Synergistic mixtures, microtiter test, net blotch pathogen Pyrenophora teres (Use Example 29); format: cell-based; settings: single compound
Gaeumannomyces graminis = experiment: Synergistic mixtures, microtiter test, Gaeumannomyces graminis (Use Example 30); format: cell-based; settings: single compound
Thielaviopsis basicola = experiment: Synergistic mixtures, microtiter test, Thielaviopsis basicola (Use Example 31); format: cell-based; settings: single compound
Puccinia recondita = experiment: Synergistic mixtures, greenhouse, preventative control of brown rust on wheat caused by Puccinia recondita (Use Example 34); format: in vivo; settings: single compound, untreated control 90% disease
Method: These percentages were converted into efficacies. An efficacy of 0 means that the growth level of the pathogens corresponds to that of the untreated control; an efficacy of 100 means that the pathogens were not growing.
The expected efficacies of active compound mixtures were determined using Colby's formula [R. S. Colby, Calculating synergistic and antagonistic responses of herbicide combinations, Weeds 15, 20-22 (1967)] and compared with the observed efficacies. E=x+y−x·y/100 Colby's formula • E expected efficacy, expressed in % of the untreated control, when using the mixture of the compounds A and B at the concentration a and b • x efficacy, expressed in % of the untreated control, when using compound A at a concentration of a • y efficacy, expressed in % of the untreated control, when using compound B at a concentration of b A) Microtiter Tests
The spray solutions were prepared in several steps:
The stock solution were prepared as follows: a mixture of acetone and/or dimethylsulfoxide and the wetting agent/emulsifier Wettol, which is based on ethoxylated alkylphenoles, in a relation (volume) solvent-emulsifier of 99 to 1 was added to 25 mg of the compound to give a total of 10 ml. Water was then added to total volume of 100 ml.
This stock solution was diluted with the described solvent-emulsifier-water mixture to the given concentration. The compounds pyraclostrobin, boscalid and epoxiconazole were used as commercial finished formulations and diluted with water to the stated concentration of the active compound.
The first two developed leaves of pot-grown wheat seedling were sprayed to run-off with an aqueous suspension, containing the concentration of active ingredient or their mixture as described below. The next day the plants were inoculated with spores of Puccinia recondita. To ensure the success the artificial inoculation, the plants were transferred to a humid chamber without light and a relative humidity of 95 to 99% and at temperatures between 20 and 24° C. for 24 h. Then, the plants were cultivated for 6 days in a greenhouse chamber at 20 to 24° C. and a relative humidity between 65 and 70%. The extent of fungal attack on the leaves was visually assessed as % diseased leaf area.

Alternaria solani = experiment: Synergistic mixtures, microtiter test, early blight pathogen Alternaria solani (Use Example 24); format: cell-based; settings: single compound, 0.063 ppm
Verticillium dahliae = settings: single compound
Pyricularia oryzae [2] = format: cell-based; settings: control =100%, day 7
Phakopsora pachyrhizi = experiment: Comparative greenhouse test, curative action against soybean rust Phakopsora pachyrhizi (Use Example 22); format: in vivo; settings: curative spray on soybean, untreated control 100
Method: The active compounds were formulated separately or together as a stock solution comprising 25 mg of active compound which was made up to 10 ml using a mixture of acetone and/or dimethyl sulfoxide (DMSO) and the emulsifier Wettol EM 31 (wetting agent having emulsifying and dispersing action based on ethoxylated alkylphenols) in a volume ratio of solvent/emulsifier of 99 to 1. This solution was then made up to 100 ml using water. This stock solution was diluted with the solvent/emulsifier/water mixture described to the active compound concentration given below.
Leaves of potted soybean seedlings were dusted with a suspension of spores of rust of soybean (Phakopsora pachyrhizi). The plants were then placed in a chamber with high atmospheric humidity (90 to 95%), at 23 to 27° C., for 24 hours. During this time, the spores germinated and the germinal tubes penetrated into the leaf tissue. The next day, the infected plants were sprayed to runoff point with an aqueous suspension having the concentration of active compound stated in table 4 (250 ppm). After drying of the sprayed suspension, the test plants were returned to the greenhouse and cultivated at temperatures between 23 and 27° C. and at 60 to 80% relative atmospheric humidity for a further 14 days. The extent of the rust development on the leaves was then determined visually.

SMILES	Observed efficacy (%) (Pyricularia oryzae [1]; 0.063 ppm)	Observed efficacy (%) (Septoria tritici)	Observed efficacy (%) (Fusarium culmorum; 16 ppm)	Observed efficacy (%) (Colletotrichum truncatum; 4 ppm)	Observed efficacy (%) (Pyrenophora teres; 0.25 ppm)	Observed efficacy (%) (Gaeumannomyces graminis; 0.063 ppm)	Observed efficacy (%) (Thielaviopsis basicola; 16 ppm)	Observed efficacy (%) (Alternaria solani)	Observed efficacy (%) (Thielaviopsis basicola; 1 ppm)	Observed efficacy (%) (Puccinia recondita; 16 ppm)	Observed efficacy (%) (Gaeumannomyces graminis; 0.016 ppm)	other results
Cc1nccc(CNS(=O)(=O)c2ccc(Oc3ncccc3C(F)(F)F)cc2)c1C [Example 28]	27	29	1	20	4	29	23	–	–	–	–	Observed efficacy (%) (Phytophthora infestans; 0.016 ppm): 10%; Observed efficacy (%) (Pyricularia oryzae [1]; 0.25 ppm): 52%; Observed efficacy (%) (Puccinia recondita; 1 ppm): 0%
COc1cc(CNS(=O)(=O)c2ccc(Oc3ccc(Cl)cn3)cc2)ccn1 [Example 74]	–	58	1	–	33	–	–	0	32	44	–	Observed efficacy (%) (Colletotrichum truncatum; 16 ppm): 35%
COc1cc(CNS(=O)(=O)c2ccc(Oc3ccc(C(F)(F)F)cn3)cc2)ccn1 [Example 12]	45	47	3	–	–	–	–	6	–	–	30	Observed efficacy (%) (Colletotrichum truncatum; 16 ppm): 50%; Observed efficacy (%) (Pyrenophora teres; 0.063 ppm): 25%; Observed efficacy (%) (Puccinia recondita; 0.25 ppm): 0%; Observed efficacy (%) (Puccinia recondita; 1 ppm): 22%
COc1cc(CNS(=O)(=O)c2ccc(Oc3ncccc3C(F)(F)F)cc2)ccn1 [Example 13]	–	39	2	26	–	31	–	–	–	–	6	Observed efficacy (%) (Phytophthora infestans; 0.25 ppm): 16%; Observed efficacy (%) (Pyrenophora teres; 0.063 ppm): 19%
N#Cc1c(Cl)c(Cl)c(Cl)c(C#N)c1Cl [Chlorothalonil, reference compound]	0	–	–	–	–	–	–	–	56	–	9	Observed efficacy (%) (Phytophthora infestans; 0.004 ppm): 4%; Observed efficacy (%) (Phytophthora infestans; 0.25 ppm): 10%; Observed efficacy (%) (Fusarium culmorum; 4 ppm): 5%; Observed efficacy (%) (Gaeumannomyces graminis; 0.004 ppm): 0%; Observed efficacy (%) (Verticillium dahliae; 1 ppm): 40%
O=S(=O)(NCc1ccncc1)c1ccc(Oc2ccc(C(F)(F)F)cn2)cc1 [Example 9]	–	2	0	–	–	–	–	–	11	0	–	Observed efficacy (%) (Gaeumannomyces graminis; 0.25 ppm): 5%
COc1cc(CNS(=O)(=O)c2ccc(Oc3ccccc3)cc2)ccn1 [comparative example 1, reference compound]	–	–	–	–	–	–	–	–	–	–	–	growth in [%] at 31 ppm (Pyricularia oryzae [2]): 97%
Cc1nccc(CNS(=O)(=O)c2ccc(Oc3ccccn3)cc2)c1C [Example 33]	–	22	1	24	0	4	9	4	–	33	–	infection in [%] at 250 ppm (Phakopsora pachyrhizi): 5%; Observed efficacy (%) (Pyricularia oryzae [1]; 0.25 ppm): 38%; Observed efficacy (%) (Gaeumannomyces graminis; 0.25 ppm): 21%
Cc1nccc(CNS(=O)(=O)c2ccc(Oc3ccc(Br)cn3)cc2)c1C [Example 71]	–	43	1	29	20	52	56	4	9	0	–	Observed efficacy (%) (Verticillium dahliae; 4 ppm): 55%
